Measured values: patent US9656960B2, “Inhibitors of microsomal triglyceride transfer protein and apo-B secretion” (Surface Logix, Inc., priority 2005, dated 2017)

How the values were obtained:
Caco-2 = test: Bidirectional Caco-2 permeability assay; format: in vitro ADME; settings: bidirectional Caco-2 assay, analysis by fluorescence and HPLC
Procedure: The following table (Table 1) depicts the activity of several compounds of Formula I or II according to the present invention. Permeability was measured in a bidirectional Caco-2 assay with analysis by fluorescence and HPLC.

ApoA1 [1] = test: ApoA1 secretion assay in HepG2 cells (ELISA); format: cell-based; settings: Homo sapiens, 24 hour incubation, ELISA of growth media
Procedure: (§1) The following protocol is written for HepG2 cells types, but the same or similar protocol may be used with other cell types, such as Caco-2 cells.
(§2) HepG2 cells were grown in MEM Eagle's medium containing 10% fetal bovine serum with 1% penicillin/streptomycin in an incubator (5% CO2, 100% relative humidity, 37° C.). At ca. 85% confluency, the cells were treated with test compounds (0.2% DMSO) at appropriate concentrations in triplicate. After 24 hour incubation with the test compounds, growth media were collected from each sample. Concentrations for apo-B and apoA1 were determined using ELISA. Mouse anti-human Apo-B and ApoA1 antibody and Alk-phos conjugated secondary antibody (goat) was used in ELISA. Triplicate data in six half-log concentrations were used to calculate an IC50 value for each compound.

ApoA1 [2] = test: ApoA1 secretion assay in Caco-2 cells (ELISA); format: cell-based; settings: Homo sapiens
Procedure: as §1, §2

Apo-B [3] = test: Apo-B secretion assay in Caco-2 cells (ELISA); format: cell-based; settings: Homo sapiens
Procedure: as §1, §2

Apo-B [4] = test: Apo-B secretion assay in HepG2 cells (ELISA); format: cell-based; settings: Homo sapiens, 24 hour incubation, ELISA of growth media
Procedure: A test compound is considered to be active if it is active in any of the following screens. The activity of a compound according to the invention can be assessed by measuring inhibition of apo B secretion in HepG2 cells.
as §1, §2

Caco-2 (10-6 cm/sec) (Caco-2)	IC50 (ApoA1 [1])	IC50 (ApoA1 [2])	IC50 (Apo-B [3])	IC50 (Apo-B [4])	SMILES
30 10-6 cm/sec	> 30000 nM	> 30000 nM	15 nM	30 nM	COCCCNC(=S)N1CCc2cc(NC(=O)c3ccccc3-c3ccc(C(F)(F)F)cc3)ccc2C1 [Compound 13]
0 10-6 cm/sec	> 30000 nM	> 30000 nM	110 nM	220 nM	O=C(Nc1ccc2c(c1)CCN(C(=O)OCc1ccccc1)C2)c1ccccc1-c1ccc(C(F)(F)F)cc1 [Compound 12]
0 10-6 cm/sec	> 30000 nM	> 30000 nM	4400 nM	230 nM	COc1cccc(C(=O)Nc2ccc3c(c2)CCN(c2nc(-c4ccccc4)cs2)C3)c1-c1ccc(C(F)(F)F)cc1 [Compound 14]
0 10-6 cm/sec	> 30000 nM	> 30000 nM	16 nM	0.7 nM	CC(C)Oc1cccc(C(=O)Nc2ccc3c(c2)CCN(C(=O)Oc2ccccc2)C3)c1-c1ccc(C(F)(F)F)cc1 [Compound 17]
0 10-6 cm/sec	> 30000 nM	> 30000 nM	7.7 nM	1.6 nM	COc1cccc(C(=O)Nc2ccc3c(c2)CCN(C(=O)Oc2ccccc2)C3)c1-c1ccc(C(F)(F)F)cc1 [Compound 11]
0 10-6 cm/sec	> 30000 nM	> 30000 nM	60 nM	6 nM	COc1cccc(C(=O)Nc2ccc3c(c2)CCN(C(=O)OC(C)(C)C)C3)c1-c1ccc(C(F)(F)F)cc1 [Compound 15]
0 10-6 cm/sec	> 30000 nM	> 30000 nM	40 nM	3 nM	O=C(Nc1ccc2c(c1)CCN(C(=S)NCc1ccccc1)C2)c1ccccc1-c1ccc(C(F)(F)F)cc1 [Compound 10]
0 10-6 cm/sec	> 30000 nM	> 30000 nM	11 nM	2.3 nM	COc1cccc(C(=O)Nc2ccc3c(c2)CCN(C(=O)Oc2ccc(F)cc2)C3)c1-c1ccc(C(F)(F)F)cc1 [Compound 16]
